Test results from US20130244929A1 (priority 2010, published 2013).
Read-outs that look alike come from different tables or passages of the source.

Experiments:
[1] = tested on: MB 5393 (COL), a methicillin-resistant S. aureus strain; assay: Determination of minimum and synergistic inhibitory concentration; assay type: cell-based; conditions: for SIC: presence of imipenem (4 μg/mL); for MIC: Staphylococcus aureus
Experimental: MB 5393 (COL), a methicillin-resistant S. aureus strain, was inoculated into Trypticase Soy Broth (TSB, BBL) and grown in a humidified incubator for 18 hours with rotary shaking at 220 rpm and kept on ice until used.
A quantity of imipenem (Merck Chemical Collection) was weighed out and dissolved into sterile 10 mM MOPS buffer at pH 7. This solution was diluted to 1600 μg/mL, 200 μg/mL, and 25 μg/mL and filter-sterilized through a 0.45 μm filter. From these solutions, seven 1:2 serial dilutions were prepared using sterile 10 mM MOPS buffer at pH 7. The final concentration ranges tested were 128 to 2 μg/mL, 16 to […], and 2 to 0.03 μg/mL. The solutions were kept refrigerated until used.
Test compounds (EXAMPLES 1-67) were prepared in sterile water or DMSO at a concentration of 3.2 mg/mL. From this solution, 11 serial 1:2 dilutions were prepared using sterile water. The final concentration range tested was 64 to 0.0313 μg/mL. The solutions were kept refrigerated until used.
Two-fold serial dilutions of test compounds were tested in the presence and absence of subinhibitory concentrations of imipenem (4 μg/mL) in 96-well U bottom microliter dishes in microbiological growth media. The plates were inoculated with bacterial cells to a final concentration of ˜5×10^5 CFU/mL. Test plates were incubated stationery at 37° C. for 22-24 hours.
After 22 hours of incubation, the Minimum inhibitory concentrations (MICs) were determined, defined as the lowest concentration of antibiotic that prevented all visible growth in the absence of imipenem. Synergistic inhibitory concentrations (SICs) were determined, defined as the lowest concentration of antibiotic that prevented all visible growth in the presence of imipenen.

SpsB = molecular target: T1, SpsB (Staphylococcus aureus, UniProt P0A070); assay: Inhibition of SpsB enzyme activity (fluorescence-based assay, bacterial membrane fraction); assay type: biochemical
T1 construct: using a bacterial membrane fraction as a source of SpsB; from tissue
T1 sequence (P0A070 1-191): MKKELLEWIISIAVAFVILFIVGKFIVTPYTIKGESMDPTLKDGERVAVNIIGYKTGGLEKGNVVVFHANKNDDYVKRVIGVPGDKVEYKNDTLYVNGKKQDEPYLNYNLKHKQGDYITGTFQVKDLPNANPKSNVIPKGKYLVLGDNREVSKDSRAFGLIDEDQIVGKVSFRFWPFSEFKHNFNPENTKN
Experimental: Signal peptidase enzyme activity was measured in a fluorescence-based assay using a bacterial membrane fraction as a source of SpsB (See Bruton et al., 2003, Eur J Med Chem 38:351-356). The SpsB substrate is a synthetic lipopeptide, decanoyl-K(DABCYL)-TPTAKA↓ASKKD-D(EDANS)—NH2 (prepared by JPT Peptide Technologies, Berlin, Germany). Assays were performed with 20 μM peptide substrate (Km≈5 μM) and reactions were initiated with enzyme addition (final protein concentration of 0.6 mg/mL). SpsB mediated cleavage of the peptide substrate was detected as an increase in fluorescence (excitation 340 nm/emission 460 nm).

[2] = MRSA COL, absence of imipenem, 22 hours, read-out: MIC

Compound	SIC ([1]; MRSA COL, 22 hours)	MIC [1, 2]	IC50 (SpsB)	MIC ([1]; MRSA, 22 h)
CCCc1ccc(-c2ccc(C(=O)NCCC(=O)N[C@@H](CCCNC(=N)N)C(=O)N(C)[C@@H]3C(=O)N[C@@H](C)C(=O)N[C@H](C(=O)O)Cc4ccc(O)c(c4)-c4cc3ccc4O)cc2)cc1.O=C(O)C(F)(F)F [EXAMPLE 8, ({(4S)-5-[[(7S,10S,13S)-13-carboxy-3,18-dihydroxy-10-methyl-8,11-dioxo-9,12-diazatricyclo[13.3.1.1^2,6]icosa-1(19),2(20),3,5,15,17-hexaen-7-yl](methyl)amino]-5-oxo-4-[(3-{[(4′-propylbiphenyl-4-yl)carbonyl]amino}propanoyl)amino]pentyl}amino)(imino)methanaminium trifluoroacetate]	H (H: SIC 0.062-1)	1 to 8 µg/mL	10 to 50 nM	
CCCCCCCCCCc1ccc2cc(C(=O)NCCC(=O)N3CC[C@H]3C(=O)N(C)[C@@H]3C(=O)N[C@@H](C)C(=O)N[C@H](C(=O)O)Cc4ccc(O)c(c4)-c4cc3ccc4O)ccc2c1 [EXAMPLE 20, (8S,11S,14S)-3,18-dihydroxy-11-methyl-14-(methyl[(2R)-1-{3-[(6-decyl-2-naphthoyl)amino]propanoylazetidin-2-yl]carbonyl}amino)-10,13-dioxo-9,12-diazatricyclo[13.3.1.1^2,6]icosa-1(19),2(20),3,5,15,17-hexaene-8-carboxylic acid]	G (G: SIC <0.0625)	1 to 8 µg/mL	< 10 nM	
CCCc1ccc(-c2ccc(C(=O)NCCC(=O)N3CCC[C@H]3C(=O)N(C)[C@@H]3C(=O)N[C@@H](C)C(=O)N[C@H](C(=O)O)Cc4ccc(O)c(c4)-c4cc3ccc4O)cc2)cc1 [EXAMPLE 12, (8S,11S,14S)-3,18-dihydroxy-11-methyl-14-(methyl{[(2S)-1-(3-{[(4′-propylbiphenyl-4-yl)carbonyl]amino}propanoyl)pyrrolidin-2-yl]carbonyl}amino)-10,13-dioxo-9,12-diazatricyclo[13.3.1.1^2,6]icosa-1(19),2(20),3,5,15,17-hexaene-8-carboxylic acid]	H (H: SIC 0.062-1)	> 8 µg/mL	10 to 50 nM	
CCCCCCCCCc1ccc(-c2ccc(C(=O)NCCC(=O)N[C@@H](CCCCN)C(=O)N(C)[C@@H]3C(=O)N[C@@H](C)C(=O)N[C@H](C(=O)O)Cc4ccc(O)c(c4)-c4cc3ccc4O)c(O)c2)cc1 [EXAMPLE 39]	G (G: SIC <0.0625)		< 10 nM	< 1 µg/mL
CCCCCCCCCCc1ccc2ccc(C(=O)NCCC(=O)N3CCC[C@H]3C(=O)N(C)[C@@H]3C(=O)N[C@@H](C)C(=O)N[C@H](C(=O)O)Cc4cccc(c4)-c4cc3ccc4OC)cc2c1 [EXAMPLE 67]	I (I: SIC >1)	> 8 µg/mL	10 to 50 nM	
CCCCCc1ccc(-c2ccc(C(=O)NCCC(=O)N[C@@H](CCCCN)C(=O)N(C)[C@@H]3C(=O)N[C@@H](C)C(=O)N[C@H](C(=O)O)Cc4ccc(O)c(c4)-c4cc3ccc4O)cc2)cc1 [EXAMPLE 35]	G (G: SIC <0.0625)		< 10 nM	< 1 µg/mL
CCCCCCCCCc1ccc(-c2ccc3cc(C(=O)NCCC(=O)N[C@@H](CCCCN)C(=O)N(C)[C@@H]4C(=O)N[C@@H](C)C(=O)N[C@H](C(=O)O)Cc5ccc(O)c(c5)-c5cc4ccc5O)sc3c2)cc1 [EXAMPLE 47]	G (G: SIC <0.0625)		< 10 nM	1 to 8 µg/mL
CCCCCCCCCc1ccc(-c2ccc(C(=O)NCCC(=O)N3CCC[C@H]3C(=O)N(C)[C@@H]3C(=O)N[C@@H](C)C(=O)N[C@H](C(=O)O)Cc4ccc(O)c(c4)-c4cc3ccc4O)cc2)cc1 [EXAMPLE 18, (8S,11S,14S)-3,18-dihydroxy-11-methyl-14-(methyl{[(2)-1-(3-{[(4′-nonylbiphenyl-4-yl)carbonyl]amino}propanoyl)pyrrolidin-2-yl]carbonyl}amino)-10,13-dioxo-9,12-diazatricyclo[13.3.1.1^2,6]icosa-1(19),2(20),3,5,15,17-hexaene-8-carboxylic acid]	H (H: SIC 0.062-1)	1 to 8 µg/mL	< 10 nM	
CCCCCCCCCc1ccc(-c2ccc(C(=O)NCCC(=O)N[C@@H](CCCCN)C(=O)N(C)[C@@H]3C(=O)N[C@@H](C)C(=O)N[C@H](C(=O)O)Cc4ccc(O)c(c4)-c4cc3ccc4O)c(F)c2)cc1 [EXAMPLE 66]	G (G: SIC <0.0625)		10 to 50 nM	< 1 µg/mL
CCCc1ccc(-c2ccc(C(=O)NCCC(=O)NC(CCCCN)C(=O)N(C)[C@@H]3C(=O)N[C@@H](C)C(=O)N[C@H](C(=O)O)Cc4ccc(OC)c(c4)-c4cc3ccc4OC)cc2)cc1.O=C(O)C(F)(F)F (stereo partly drawn) [EXAMPLE 1, 6-[[(7S,10S,13S)-13-carboxy-3,18-dimethoxy-10-methyl-8,11-dioxo-9,12-diazatricyclo[13.3.1.1^2,6]icosa-1(19),2(20),3,5,15,17-hexaen-7-yl](methyl)amino]-6-oxo-5-[(3-{[(4′-propylbiphenyl-4-yl)carbonyl]amino}propanoyl)amino]hexan-1-aminium trifluoroacetate]	H (H: SIC 0.062-1)	1 to 8 µg/mL	10 to 50 nM	
CCCCCCCCCc1ccc(-c2ncc(C(=O)NCCC(=O)N[C@@H](CCCCN)C(=O)N(C)[C@@H]3C(=O)N[C@@H](C)C(=O)N[C@H](C(=O)O)Cc4ccc(O)c(c4)-c4cc3ccc4O)cn2)cc1 [EXAMPLE 26]	G (G: SIC <0.0625)		< 10 nM	< 1 µg/mL
CCCCCCCCCc1ccc(-c2ccc(C(=O)NCCC(=O)N3CC[C@H]3C(=O)N(C)[C@@H]3C(=O)N[C@@H](C)C(=O)N[C@H](C(=O)O)Cc4ccc(O)c(c4)-c4cc3ccc4O)cc2)cc1 [EXAMPLE 19, (8S,11S,14S)-3,18-dihydroxy-11-methyl-14-(methyl{[(2)-1-(3-{[(4′-nonylbiphenyl-4-yl)carbonyl]amino}propanoyl)azetidin-2-yl]carbonyl}amino)-10,13-dioxo-9,12-diazatricyclo[13.3.1.1^2,6]icosa-1(19),2(20),3,5,15,17-hexaene-8-carboxylic acid]	G (G: SIC <0.0625)	1 to 8 µg/mL	< 10 nM	
CCCCCCCCCCc1ccc2cc(C(=O)NCCC(=O)N[C@@H](CCCCN)C(=O)N(C)[C@@H]3C(=O)N[C@@H](C)C(=O)N[C@H](C(=O)O)Cc4ccc(O)c(c4)-c4cc3ccc4O)ccc2c1.O=C(O)C(F)(F)F [EXAMPLE 17, (5S)-6-[[(7S,10S,13S)-13-carboxy-3,18-dihydroxy-10-methyl-8,11-dioxo-9,12-diazatricyclo[13.3.1.1^2,6]icosa-1(19),2(20),3,5,15,17-hexaen-7-yl](methyl)amino]-5-({3-[(6-decyl-2-naphthoyl)amino]propanoyl}amino)-6-oxohexan-1-aminium trifluoroacetate]	G (G: SIC <0.0625)	< 1 µg/mL	< 10 nM	
CCCc1ccc(-c2ccc(C(=O)NCCC(=O)NC(CCCCN)C(=O)N(C)[C@@H]3C(=O)N[C@@H](C)C(=O)N[C@H](C(N)=O)Cc4ccc(O)c(c4)-c4cc3ccc4O)cc2)cc1.O=C(O)C(F)(F)F (stereo partly drawn) [EXAMPLE 6]	H (H: SIC 0.062-1)			< 1 µg/mL
CCCCCCCCCc1ccc(-c2ccc(C(=O)NCCC(=O)N[C@@H](CCCCN)C(=O)N(C)[C@@H]3C(=O)N[C@@H](C)C(=O)N[C@H](C(=O)O)Cc4ccc(O)c(c4)-c4cc3ccc4O)nc2)cc1 [EXAMPLE 32]	G (G: SIC <0.0625)		< 10 nM	< 1 µg/mL
CCCc1ccc(-c2ccc(C(=O)NCCC(=O)N3CC(CCN)C[C@H]3C(=O)N(C)[C@@H]3C(=O)N[C@@H](C)C(=O)N[C@H](C(=O)O)Cc4ccc(O)c(c4)-c4cc3ccc4O)cc2)cc1 (stereo partly drawn) [EXAMPLE 53]	G (G: SIC <0.0625)		< 10 nM	< 1 µg/mL
CCCCCCCc1ccc(-c2ccc(C(=O)NCCC(=O)N[C@@H](CCCCN)C(=O)N(C)[C@@H]3C(=O)N[C@@H](C)C(=O)N[C@H](C(=O)O)Cc4ccc(O)c(c4)-c4cc3ccc4O)cc2)cc1 [EXAMPLE 29]	G (G: SIC <0.0625)		< 10 nM	< 1 µg/mL
CCCc1ccc(-c2ccc(C(=O)NCCC(=O)NC(CCCCN)C(=O)N(C)[C@@H]3C(=O)N[C@@H](C)C(=O)N[C@H](C(N)=O)Cc4ccc(O)c(c4)-c4cc3ccc4O)cc2)cc1.O=C(O)C(F)(F)F (stereo partly drawn) [EXAMPLE 6, trifluoroacetate]			10 to 50 nM	
